Experimental data reported in patent US20060292186A1, “Self-nanoemulsifying oily formulation for the administration of poorly water-soluble drugs” (Novagali Pharma SA, priority 2003, published 2006).

What was measured:
[1] = Dose versus plasma AUC pharmacokinetic study of paclitaxel SNEOF after cyclosporin A oral pre-treatment in wild type mice; assay type: in vivo, FVB Wild type Mice; conditions: 10-60 mg/kg p.o., CsA constant at 10 mg/kg
Protocol: Each cohort consisted of 20 mice. At the specified times, animals were anaesthetized using metofane. After fixation on their back, with their chest in an upright position blood was collected by cardiac puncture using a 1 mL polypropylene syringe fitted with 25 g needle. Blood was transferred immediately into tubes containing potassium EDTA as anticoagulant and mixed by inversion. Blood samples were centrifuged vial for 5 min at 4000 g. The supernatant plasma fraction was transferred to a clean tube with appropriate label and stored at -20° C. until analyses. […] Plasma samples for subsequent analysis were obtained from all animals. […] Plasma concentration data were reported. Plasma concentrations versus time curves were fitted using the […] software package (version 3.0) and pharmacokinetic parameters: […]

[2] = humans, without enhancer; cited from earlier work

**Q.** Which results are given for `CC(=O)O[C@H]1C(=O)[C@@]2(C)[C@H]([C@H](OC(=O)c3ccccc3)[C@]3(O)C[C@H](OC(=O)[C@H](O)[C@@H](NC(=O)c4ccccc4)c4ccccc4)C(C)=C1C3(C)C)[C@]1(OC(C)=O)CO[C@@H]1C[C@@H]2O` [paclitaxel, Paclitaxel]?
**A.** linearity of oral bioavailability with dose [1]: not linear but decreased significantly with dose; systemic bioavailability after oral paclitaxel administration [2]: less than 6%
